Laboratory results published in patent publication US11051515B2, “3-acyl-benzamides and their use as herbicides” (Bayer Aktiengesellschaft, priority 2017, dated 2021).

How the values were obtained:
[1] = tested on: ALOMY; test: Pre-emergence action against ALOMY; format: in vivo, Alopecurus myosuroides; details: dosage 320 g/ha; pre-emergence; scored visually after 3 weeks vs untreated controls; 100% = plants have died, 0% = like control plants
Source text: (§1) Seeds of monocotyledonous and dicotyledonous weed plants and crop plants are laid out in sandy loam soil in wood-fiber pots and covered with soil. The compounds of the invention, formulated in the form of wettable powders (WP) or as emulsion concentrates (EC), are then applied to the surface of the covering soil in the form of an aqueous suspension or emulsion at a water application rate equating to […], with addition of 0.2% wetting agent. After the treatment, the pots are placed in a greenhouse and kept under good growth conditions for the trial plants. The damage to the test plants is scored visually after a test period of 3 weeks by comparison with untreated controls (herbicidal activity in percent (%): 100% activity=the plants have died, 0% activity=like control plants).

[2] = tested on: CYPES; test: Pre-emergence action against CYPES; format: in vivo, Cyperus esculentus; details: pre-emergence, dosage 320 g/ha, scored visually after 3 weeks vs untreated controls
Source text: as §1

[3] = tested on: ECHCG; test: Pre-emergence action against ECHCG; format: in vivo, Echinochloa crus-galli; details: pre-emergence, dosage 320 g/ha, scored visually after 3 weeks vs untreated controls
Source text: as §1

[4] = tested on: SETVI; test: Pre-emergence action against SETVI; format: in vivo, Setaria viridis; details: pre-emergence, dosage 320 g/ha, scored visually after 3 weeks vs untreated controls
Source text: as §1

[5] = tested on: ABUTH; test: Pre-emergence action against ABUTH; format: in vivo, Abutilon theophrasti; details: pre-emergence, dosage 320 g/ha, scored visually after 3 weeks vs untreated controls
Source text: as §1

[6] = tested on: AMARE; test: Pre-emergence action against AMARE; format: in vivo, Amaranthus retroflexus; details: pre-emergence, dosage 320 g/ha, scored visually after 3 weeks vs untreated controls
Source text: as §1

[7] = tested on: MATIN; test: Pre-emergence action against MATIN; format: in vivo, Matricaria inodora; details: Dosage 320 g/ha, pre-emergence
Source text: as §1

[8] = tested on: POLCO; test: Pre-emergence action against POLCO; format: in vivo, Polygonum convolvulus; details: Dosage 320 g/ha, pre-emergence
Source text: as §1

[9] = tested on: STEME; test: Pre-emergence action against STEME; format: in vivo, Stellaria media; details: Dosage 320 g/ha, pre-emergence
Source text: as §1

[10] = tested on: VIOTR; test: Pre-emergence action against VIOTR; format: in vivo, Viola tricolor; details: Dosage 320 g/ha, pre-emergence
Source text: as §1

[11] = tested on: ECHCG; test: Post-emergence action against ECHCG; format: in vivo, Echinochloa crus-galli; details: post-emergence, dosage 80 g/ha, visual assessment about 3 weeks after treatment vs untreated controls
Description: (§2) Seeds of monocotyledonous and dicotyledonous weed and crop plants are laid out in sandy loam soil in wood-fiber pots, covered with soil and cultivated in a greenhouse under good growth conditions. 2 to 3 weeks after sowing, the test plants are treated at the one-leaf stage. The compounds of the invention, formulated in the form of wettable powders (WP) or as emulsion concentrates (EC), are then sprayed onto the green parts of the plants in the form of an aqueous suspension or emulsion at a water application rate equating to […], with addition of 0.2% wetting agent. After the test plants have been left to stand in the greenhouse under optimal growth conditions for about 3 weeks, the action of the preparations is assessed visually in comparison to untreated controls (herbicidal action in percent (%): 100% activity=the plants have died, 0% activity=like control plants). […] At the same time, inventive compounds leave Gramineae crops such as barley, wheat, rye, millet/Sorghum, corn or rice virtually undamaged when applied post-emergence, even at high active ingredient dosages. In addition, some substances are also harmless to dicotyledonous crops such as soya, cotton, oilseed rape, sugar beet or potatoes. Some of the compounds according to the invention have high selectivity and are therefore suitable for controlling unwanted vegetation in agricultural crops by the post-emergence method. The data of Tables B18 to B34 below illustrate, in an exemplary manner, the […] herbicidal action of the compounds according to the invention, the herbicidal activity being stated in percent.

[12] = tested on: ABUTH; test: Post-emergence action against ABUTH; format: in vivo, Abutilon theophrasti; details: post-emergence, dosage 80 g/ha, visual assessment about 3 weeks after treatment vs untreated controls
Description: as §2

[13] = tested on: AMARE; test: Post-emergence action against AMARE; format: in vivo, Amaranthus retroflexus; details: post-emergence, dosage 80 g/ha, visual assessment about 3 weeks after treatment vs untreated controls
Description: as §2

[14] = tested on: MATIN; test: Post-emergence action against MATIN; format: in vivo, Matricaria inodora; details: post-emergence, dosage 80 g/ha, visual assessment about 3 weeks after treatment vs untreated controls
Description: as §2

[15] = tested on: PHBPU; test: Post-emergence action against PHBPU; format: in vivo, Pharbitis purpurea; details: post-emergence, dosage 80 g/ha
Description: as §2

[16] = tested on: STEME; test: Post-emergence action against STEME; format: in vivo, Stellaria media; details: post-emergence, dosage 80 g/ha
Description: as §2

[17] = tested on: VIOTR; test: Post-emergence action against VIOTR; format: in vivo, Viola tricolor; details: post-emergence, dosage 80 g/ha
Description: as §2

[18] = tested on: PHBPU; test: Pre-emergence action against PHBPU; format: in vivo, Pharbitis purpurea; details: Dosage 320 g/ha, pre-emergence
Source text: as §1

[19] = tested on: VERPE; test: Pre-emergence action against VERPE; format: in vivo, Veronica persica; details: Dosage 320 g/ha, pre-emergence
Source text: as §1

[20] = tested on: SETVI; test: Post-emergence action against SETVI; format: in vivo, Setaria viridis; details: post-emergence, dosage 80 g/ha, visual assessment about 3 weeks after treatment vs untreated controls
Description: as §2

[21] = tested on: VERPE; test: Post-emergence action against VERPE; format: in vivo, Veronica persica; details: dosage 80 g/ha
Description: as §2

[22] = tested on: AVEFA; test: Pre-emergence action against AVEFA; format: in vivo, Avena fatua; details: dosage 320 g/ha, scored visually after 3 weeks vs untreated controls
Source text: as §1

Row | SMILES | Pre-emergence action against ALOMY (herbicidal activity in percent) [1] [%] | Pre-emergence action against CYPES (herbicidal activity) [2] [%] | Pre-emergence action against ECHCG (herbicidal activity) [3] [%] | SETVI (Table B8, pre-emergence herbicidal activity) [4] [%] | Pre-emergence action against ABUTH (herbicidal activity) [5] [%] | Pre-emergence action against AMARE (herbicidal activity) [6] [%] | Pre-emergence action against MATIN [7] [%] | Pre-emergence action against STEME [9] [%] | Pre-emergence action against VIOTR [10] [%] | Post-emergence action against ECHCG (herbicidal action in percent) [11] [%] | Post-emergence action against ABUTH (herbicidal action in percent) [12] [%] | Post-emergence action against AMARE (herbicidal action in percent) [13] [%] | Post-emergence action against MATIN (herbicidal action in percent) [14] [%] | Post-emergence action against PHBPU [15] | Post-emergence action against STEME [16] | Post-emergence action against VIOTR [17] | Pre-emergence action against PHBPU [18] [%] | Pre-emergence action against VERPE [19] [%] | Post-emergence action against SETVI (herbicidal action in percent) [20] [%] | Post-emergence action against VERPE [21] | other results
1 | CCCn1nnnc1NC(=O)c1ccc(C)c(C(C)=O)c1C [3-1] | 90 | 90 | 90 | 90 | 100 | 100 | 100 | 90 | 100 | 100 | 80 | 90 | 100 | 80 | 90 | 100 | – | – | – | – | Pre-emergence action against POLCO [8]: 90%
2 | CCCn1nnnc1NC(=O)c1ccc(C)c(C(=O)C2CC2)c1C [3-3] | 90 | 90 | 100 | 90 | 80 | 100 | 100 | 90 | – | 100 | – | 100 | – | – | 80 | – | – | – | – | – | –
3 | CCCn1nnnc1NC(=O)c1ccc(C(F)(F)F)c(C(=O)CC)c1C [3-15] | 80 | – | 100 | 100 | 100 | 100 | 100 | 100 | 100 | 100 | 90 | 90 | 100 | 90 | 100 | 90 | 80 | 100 | 100 | 90 | –
4 | CCCn1nnnc1NC(=O)c1ccc(C)c(C(=O)C2CC2)c1Cl [3-136] | – | – | 80 | – | 80 | 90 | 90 | – | – | 80 | – | 80 | 90 | 90 | 100 | 80 | 90 | – | – | 80 | –
5 | CCCn1nnnc1NC(=O)c1ccc(C(F)(F)F)c(C(=O)COC)c1Cl [3-144] | 90 | 100 | 100 | 100 | 100 | 100 | 100 | 100 | 100 | 80 | 90 | 90 | 90 | 100 | 100 | 80 | 80 | 100 | 100 | 80 | Pre-emergence action against AVEFA (herbicidal activity) [22]: 80%
